In experiment [1] the test system is diet induced obese (DIO) mice. Briefly: In vivo study of a combination of a NPY5 antagonist and food restriction. Further details: species or system Male C57BL/6J mice. As to the method:
Male C57BL/6J mice (CLEA Japan Inc., 14 months old at the beginning of the drug administration) were used. Mice were given water and a regular pellet chow (CE-2, CLEA Japan Inc.) ad libitum. They were kept in an animal room which was maintained at 23±2° C. temperature, 55±15% relative humidity and on a 12-hr light-dark cycle (7:00-19:00) during a quarantine and acclimatization period of 1 week. Before the start of drug administration, mice were fed a MHF diet (Oriental BioService Co., Tokyo, Japan) for about 9 to 10 months until the body weight gain reached a plateau. After the body weight gain reached a plateau, the diet was changed to a powder MHF diet. The powder MHF diet was given by powder feeder (small dishes). Diet and dishes were changed everyday, and the daily food intake was measured. During this period, animals were orally administered vehicle (0.5% methylcellulose in distilled water) by gavage twice-daily. After stable feeding was observed, the amount of new food was adjusted to daily food intake+0.3 g, to minimize the amount of spilled food. After the acclimation period, the […] mice were divided into four groups to match the average values of body weight (initial average body weight was 49 to 51 g) and food intake (n=7-10). Two of the groups were orally administered either vehicle or compound B at a dose of 30 mg/kg twice-daily for 1.5 months by gavage, respectively. Another two groups were treated with vehicle or compound B and given 90% of the average baseline food intake of the each mouse during the acclimation period (10% food restriction). The administration was done one and half hours before the beginning of the dark period following body weight measurement and one and half hours after the beginning of the light period. The amount of food was divided into two meals and given around at 8:00 and 18:00 to avoid a long duration of fasting. Food and body weight were measured.

For experiment [2], the system named is diet induced obese (DIO) mice. Nature of the experiment: In vivo pair-feeding study with a NPY5 antagonist. Further details: species or system Male C57BL/6J mice. As to the method:
Compound A, is an orally active, selective NPY5 antagonist (Kanatani et al., 2000, Biochem. Biophys. Research Comm. 272:169-173). Male C57BL/6J mice (CLEA Japan Inc., 16 months old at the beginning of the drug administration) were used. Mice were given water and regular pellet chow (CE-2, CLEA Japan Inc.) ad libitum. They were kept in an animal room which was maintained at 23±2° C. temperature, 55±15% relative humidity and on a 12-hr light-dark cycle (7:00-19:00) during a quarantine and acclimatization period of 1 week.
Before the start of drug administration, mice were fed a MB diet (Oriental BioService Co., Tokyo, Japan) for about 9 to 10 months until the body weight gain reached plateau. After the body weight gain reached a plateau, the diet was change to a powder MHF diet. The powder MEW diet was given by powder feeder (small dishes). Diet and dishes were changed everyday, and daily food intake was measured. During this period, animals were orally administered vehicle (0.5% methylcellulose in distilled water) by gavage once-daily. After stable feeding was observed, the amount of new food was adjusted to daily food intake+0.3 g, to minimize the amount of spilled food. After the acclimation period, the MB diet-fed mice were divided into three groups to match average values of body weight (initial average body weight was 48 to 49 g). Each group was orally administered either vehicle or compound A at a dose of 100 mg/kg once-daily for 1 month, or vehicle by gavage. Food and body weight were measured. The administration was done one and half hours before the beginning of the dark period following the body weight measurement. Four days after drug administration, the pair-feeding was started. The pair-fed amount of food was calculated from the following equations: Average F.I. inhibition of drug treated group (%)=(average F.I. from control group−average F.I. from drug treated group)/average F.I. from control group×100 Pair fed amount of food for each animal=each animal's average F.I. from pre period×(1−average F.I. inhibition of drug treated group (%)) Pair fed mice were given a diet calculated from above inhibition and pre-average F.I. value. The amount of food was divided to two meals and given around at 8:00 and 18:00 to avoid a long duration of fasting. Rectal temperature was measured at 13:00-14:00 by insertion of thermo-probe in the rectum, at the 14, 22, 29, 34th day (10, 18, 25, 30th day for pair-fed group) after the start of treatment. Results

Data on two compounds can be found in patent US20050288213A1, “Combination therapy for the treatment of obesity” (priority 2002, published 2005).

Entries after “also recorded” stand apart in the source; their conditions may differ.

Regarding `O=C1OC2(CCN(C(=O)Nc3cnc(-c4ccccc4)cn3)CC2)c2ccccc21` [Compound B, 3-oxo-N-(5-phenyl-2-pyrazinyl)-spiro[isobenzofuran-1(3H),4′-piperidine]-1′-carboxamide], the “body weight, combination with 10% food restriction” value in experiment [1] (30 mg/kg twice-daily P.O. plus 10% food restriction, compared with either treatment alone, 30 mg/kg) is listed as “decreased weight than either treatment alone; also recorded: lose more weight than food restriction alone”. Also, the food intake entry in experiment [1] (30 mg/kg twice-daily P.O., throughout the treatment period) was “mildly reduced food intake”. Also, in experiment [1] (Mus musculus, po, 30 mg/kg twice-daily P.O., 1.5 months, read-out: Inhibitory percentage of cumulative food intake), the inhibition at 30 mg/kg was 6%. The body weight entry in experiment [1] (non food restricted, 30 mg/kg twice-daily P.O., 49 day treatment) is “significantly reduced body weight”.
In the case of `CC1(C)CC(=O)C(C2C3=C(CC(C)(C)CC3=O)Oc3ccccc32)C(=O)C1` (stereo not drawn) [Compound A], the “food consumed, less than untreated controls” value in experiment [2] (DIO mice chronically treated) is given as “about 10%”. Further, the body weight entry in experiment [2] (DIO mice, 100 mg/kg once-daily P.O., 30 day treatment) is “significantly reduced body weight”. Besides, the food intake result in experiment [2] (DIO mice, 100 mg/kg once-daily P.O., throughout the treatment period) is on record as “mildly reduced food intake”. Also, the rectal temperature result in experiment [2] (DIO mice, 100 mg/kg once-daily P.O., compared with control and pair-fed group, 100 mg/kg) is on record as “almost the same as that in the control group; also recorded: drop in body temperature was prevented”. The inhibition at 100 mg/kg in experiment [2] (Mus musculus, po, DIO mice, 100 mg/kg once-daily P.O., 1 month, read-out: Inhibitory percentage of cumulative food intake) was found to be 12.5%.
